Measurements published in patent US20220395608A1, “WATER SOLUBLE BIOADHESIVES” (THE GOVERNING COUNCIL OF THE UNIVERSITY OF TORONTO, priority 2019, published 2022).

Columns and labels:
[1] = test system: A10 smooth muscle cell line; test: DNA mass quantification (Hoechst 33258) cytotoxicity assay, direct contact, ISO 10993-5; assay type: cell-based; settings: A10 cells, relative to DMEM negative control, mean ± SD, n = 4
Procedure: (§1) Cytotoxicity Assays: In vitro cytotoxicity of adhesive formulations was assessed by direct contact with cells, according to ISO 10993-5 [35], which describes test methods to evaluate in vitro cytotoxicity of medical devices and, therefore, determine the in vitro biological response of mammalian cells using appropriate parameters. DNA mass quantification and Water-soluble tetrazolium (WST-1) assays were used to evaluate the toxicity of the formulations to a cell line. Negative and positive controls consisted of growth media with untreated cells and 5% Dimethyl sulfoxide (DMSO), respectively.
Cell Culture and Sample Preparation: A10 smooth muscle cell line (ATCC, CRL-1476™) were cultured in Dulbecco's modified Eagle's medium (DMEM), supplemented with 100 U mL^−1 penicillin/100 μg of streptomycin and 10% fetal bovine serum in a humidified atmosphere at 37° C. with 5% C02. The medium was changed every other day, allowing the cells to grow and reach confluency. When the cells reached 80-90% confluence, they were passaged following treatment with 0.25% trypsin-EDTA solution. This procedure was repeated until the cells entered their standard cellular cycle. Samples of adhesives were pre-conditioned in an incubator with DMEM for 24 h. […]
DNA mass quantification: At each time-point, cells were lysed with ice-cold lysis buffer (0.05% Triton X-100, 50 mM EDTA in PBS) for 1 h and tested for DNA assay as previously described. […] Then, 10 μL of cell lysate was added to the dye and read against a calf thymus DNA standard in a fluorescence microplate reader (BioTek Cytation 3, Biotek, Winooski, Vt., USA), with the excitation wavelength set at 360 nm and the emission wavelength observed at 460 nm.
(§2) Statistical analysis: Data was analyzed using the software PASW Statistics 21.0 (SPSS Inc, Chicago, Ill., USA). Two-Way analysis of variance (ANOVA) and Tukey's multiple comparison post-hoc tests will be used to determine a statistical significance between the groups for the DNA mass quantification and WST-1 assays. […]

[2] = test system: A10 smooth muscle cell line; test: WST-1 cell viability assay, direct contact, ISO 10993-5; assay type: cell-based; settings: A10 cells, relative to DMEM negative control, mean ± SD, n = 4
Procedure: as §1
Cell Culture and Sample Preparation: A10 smooth muscle cell line (ATCC, CRL-1476™) were cultured in Dulbecco's modified Eagle's medium (DMEM), supplemented with 100 U mL^−1 penicillin/100 μg of streptomycin and 10% fetal bovine serum in a humidified atmosphere at 37° C. with 5% C02. The medium was changed every other day, allowing the cells to grow and reach confluency. When the cells reached 80-90% confluence, they were passaged following treatment with 0.25% trypsin-EDTA solution. This procedure was repeated until the cells entered their standard cellular cycle. Samples of adhesives were pre-conditioned in an incubator with DMEM for 24 h. Then, cells were seeded onto the samples, to which 200 μL of A10 suspension (approximately 25,000 cells/mL) was added. The seeded specimens were confined in the wells of a 96-well plate for 24 h, 72 h and 7 days.
WST-1 assay: For the WST assay, after removing media and rinsing with 1× with PBS, 200 μL of DMEM was added to each well. […] The absorbance was read using a multi-mode reader (BioTek Cytation 3, Biotek, Winooski, Vt., USA) at 450 nm, with a reference wavelength of 650 nm. […]
as §2

Structure (SMILES): C[S+](C)[O-] [5% DMSO, Dimethyl sulfoxide]
- Relative DNA mass (%) ([1]; 24 h): 15.3 ± 5.3%
- Relative DNA mass (%) ([1]; 72 h): 1.3 ± 1.9%
- Relative DNA mass (%) ([1]; 7 d): 1.4 ± 1.6%
- Relative Cell viability (%) ([2]; WST-1, 24 h): 18.4 ± 0.9%
- Relative Cell viability (%) ([2]; WST-1, 72 h): 4.4 ± 1.1%
- Relative Cell viability (%) ([2]; WST-1, 7 d): 1.0 ± 0.5%
